From patent publication US12384808B2, “Modulators of TNF-α activity” (Forward Therapeutics, Inc., priority 2022, dated 2025)

The compounds below were run against TNFα (Homo sapiens, UniProt P01375) (assay: TNFα Induced HEK Blue Cellular Assay). Settings: HEK Blue TNFα reporter cells, TNFα 100 pg/ml, 24 hrs at 37° C., secreted alkaline phosphatase (QUANTI-Blue) read at 620 nm; read-out: IC50 value.
Sequence of TNFα (P01375 77-233 limits assumed): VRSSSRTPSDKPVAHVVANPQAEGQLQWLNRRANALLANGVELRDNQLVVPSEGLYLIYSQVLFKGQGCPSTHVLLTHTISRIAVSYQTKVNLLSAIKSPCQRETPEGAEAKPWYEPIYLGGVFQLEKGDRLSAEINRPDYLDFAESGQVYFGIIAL
Format: cell-based
Experimental: TNFα Induced HEK Blue Cellular Assay
Test articles were diluted in DMSO and serially diluted into 384 well assay plate (Corning 3765), at final concentrations ranging from […] to 0.5 nM. HEK Blue™ TNFα reporter cells were added at a final density of 10,000 cell per well in assay media [DMEM (Gibco, cat #21063-029), 10% fetal bovine serum (ExcelBio, cat #FND500), 1% Penicillin-Streptomycin (Solarbio, cat #P1400-100]. TNFα (R&D 210-TA-020/CF) was then added to the assay plate at a final concentration of 100 pg/ml. This plate was then incubated for 24 hrs at 37° C. and 5% CO2. Secreted alkaline phosphatase expression was then measured using QUANTI-Blue™ (Invivogen), according to manufacturer instructions and read on an Envision microplate reader at 620 nm.
Inhibition data for test compound over a range of concentration was plotted as percentage inhibition of the test compound (100%=maximum inhibition). IC50 values were determined after correcting for background [(sample read−mean of low control)/(mean of high control−mean of low control)] where by the low control is DMSO without stimulation and high control is DMSO with stimulation. The IC50 is defined as the concentration of test compound which produces 50% inhibition and was quantified using the 4 parameter logistic equation to fit the data.
`CN1C(=O)c2cccc(OC(F)F)c2[C@H]2C[C@@H]1c1nc3ccc(-c4cnc(OCP(C)(C)=O)s4)cc3n12` [Example 25, (1R,11R)-18-(difluoromethoxy)-5-{2-[(dimethylphosphoryl)methoxy]-1,3-thiazol-5-yl}-12-methyl-2,9,12-triazapentacyclo[9.8.1.0^{2,10}.0^{3,8}.0^{14,19}]icosa-3(8),4,6,9,14(19),15,17-heptaen-13-one] was tested, and the IC50 was less than 100 nM.
With `CN1C(=O)c2cccc(OC(F)F)c2[C@H]2C[C@@H]1c1nc3ccc(-c4ccc(P(C)(C)=O)cc4Cl)cc3n12` [Example 27, (1R,11R)-5-[2-chloro-4-(dimethylphosphoryl)phenyl]-18-(difluoromethoxy)-12-methyl-2,9,12-triazapentacyclo[9.8.1.0^{2,10}.0^{3,8}.0^{14,19}]icosa-3(8),4,6,9,14(19),15,17-heptaen-13-one] the IC50 was less than 100 nM.
`CN1C(=O)c2cccc(OC(F)F)c2[C@H]2C[C@@H]1c1nc3ccc(-c4ccc(P(C)(C)=O)cc4F)cc3n12` [Example 28, (1R,11R)-18-(difluoromethoxy)-5-[4-(dimethylphosphoryl)-2-fluorophenyl]-12-methyl-2,9,12-triazapentacyclo[9.8.1.0^{2,10}.0^{3,8}.0^{14,19}]icosa-3(8),4,6,9,14(19),15,17-heptaen-13-one] was tested, and the IC50 was less than 100 nM.
Compound `Cc1cc(P(C)(C)=O)ccc1-c1ccc2nc3n(c2c1)[C@@H]1C[C@H]3N(C)C(=O)c2cccc(OC(F)F)c21` [Example 29, (1R,11R)-18-(difluoromethoxy)-5-[4-(dimethylphosphoryl)-2-methylphenyl]-12-methyl-2,9,12-triazapentacyclo[9.8.1.0^{2,10}.0^{3,8}.0^{14,19}]icosa-3(8),4,6,9,14(19),15,17-heptaen-13-one] has an IC50 of less than 100 nM.
In the case of `CN(CP(C)(C)=O)c1ccc(-c2ccc3nc4n(c3c2)[C@@H]2C[C@H]4N(C)C(=O)c3cccc(OC(F)F)c32)cn1` [Example 30, (1R,11R)-18-(difluoromethoxy)-5-(6-{[(dimethylphosphoryl)methyl](methyl)amino}pyridin-3-yl)-12-methyl-2,9,12-triazapentacyclo[9.8.1.0^{2,10}.0^{3,8}.0^{14,19}]icosa-3(8),4,6,9,14(19),15,17-heptaen-13-one], the IC50 is reported as less than 100 nM.
`CP(C)(=O)c1ccc(-c2ccc3nc4n(c3c2)[C@@H]2C[C@H]4NC(=O)c3cccc(OC(F)F)c32)c(F)c1` [Example 31, (1R,11R)-18-(difluoromethoxy)-5-[4-(dimethylphosphoryl)-2-fluorophenyl]-2,9,12-triazapentacyclo[9.8.1.0^{2,10}.0^{3,8}.0^{14,19}]icosa-3(8),4,6,9,14(19),15,17-heptaen-13-one] was tested, and the IC50 was less than 100 nM.
In the case of `Cc1cc(P(C)(C)=O)ccc1-c1ccc2nc3n(c2c1)[C@@H]1C[C@H]3NC(=O)c2cccc(OC(F)F)c21` [Example 32, (1R,11R)-18-(difluoromethoxy)-5-[4-(dimethylphosphoryl)-2-methylphenyl]-2,9,12-triazapentacyclo[9.8.1.0^{2,10}.0^{3,8}.0^{14,19}]icosa-3(8),4,6,9,14(19),15,17-heptaen-13-one], the IC50 is reported as less than 100 nM.
Work on `CN1C(=O)c2cccc(OC(F)F)c2[C@H]2C[C@@H]1c1nc3ccc(-c4ccc(CP(C)(C)=O)cc4)cc3n12` [Example 33, (1R,11R)-18-(difluoromethoxy)-5-{4-[(dimethylphosphoryl)methyl]phenyl}-12-methyl-2,9,12-triazapentacyclo[9.8.1.0^{2,10}.0^{3,8}.0^{14,19}]icosa-3(8),4,6,9,14(19),15,17-heptaen-13-one] yielded an IC50 of less than 100 nM.
`CP(C)(=O)c1ccc(-c2ccc3nc4n(c3c2)[C@@H]2C[C@H]4NC(=O)c3cccc(OC(F)F)c32)c(F)c1F` [Example 34, (1R,11R)-18-(difluoromethoxy)-5-[4-(dimethylphosphoryl)-2,3-difluorophenyl]-2,9,12-triazapentacyclo[9.8.1.0^{2,10}.0^{3,8}.0^{14,19}]icosa-3(8),4,6,9,14(19),15,17-heptaen-13-one] gave an IC50 of less than 100 nM.
